One assay concerns the target T1, recombinant human MMP-13 (Homo sapiens, UniProt P45452).
T1 construct: made in house
As to the kind of experiment: In vitro metalloprotease inhibition, fluorogenic peptide assay (MMP-13). Format: biochemical. The note with it: recombinant human MMP-13, APMA activated; fluorogenic MCA peptide substrate 4 uM; pH 7.5, room temperature. In a few lines:
(§1)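 APMA-activated recombinant human MMP-13 (baculovirus-expressed) and MMP-1 (HT-1080-expressed) preincubated with inhibitor 10 min at room temperature in Tris/NaCl/CaCl2 buffer, pH 7.5, 1% DMSO final. MCA-PLGL-Dpa-AR-NH2 substrate at 4 uM final; cleavage read as fluorescence (ex 328/em 415 nm). IC50 from fluorescence reduction versus inhibitor concentration.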

For a further assay, the target named is T2, recombinant human MMP-1 (Homo sapiens, UniProt P03956).
T2 construct: made in house; host or cells: transfected HT-1080 cells (provided by Dr. Howard Welgus, Washington University)
T2 sequence (P03956 100-469): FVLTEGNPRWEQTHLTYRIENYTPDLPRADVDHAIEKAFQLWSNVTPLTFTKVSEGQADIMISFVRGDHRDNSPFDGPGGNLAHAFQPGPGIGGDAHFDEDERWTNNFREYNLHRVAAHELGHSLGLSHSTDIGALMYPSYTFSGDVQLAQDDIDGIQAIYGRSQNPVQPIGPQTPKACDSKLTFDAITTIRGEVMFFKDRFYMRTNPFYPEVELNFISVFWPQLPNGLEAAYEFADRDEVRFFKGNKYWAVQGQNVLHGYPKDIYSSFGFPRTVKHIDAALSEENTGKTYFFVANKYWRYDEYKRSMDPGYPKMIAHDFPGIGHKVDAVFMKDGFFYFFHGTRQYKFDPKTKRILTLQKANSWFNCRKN
Nature of the assay: In vitro metalloprotease inhibition, fluorogenic peptide assay (MMP-1). Format: biochemical. The note with it: recombinant human MMP-1, APMA activated; fluorogenic MCA peptide substrate 4 uM; pH 7.5, room temperature. Put shortly: as §1

Assay [1] has as its system angiogenesis in the cornea of a mouse. Nature of the assay: In vivo angiogenesis assay (corneal micropocket assay, bFGF pellet). The note with it: C57Bl/6 female mouse, 50 mg/kg bid, po, scored at day five. The protocol:
The study of angiogenesis depends on a reliable and reproducible model for the stimulation and inhibition of a neovascular response. The corneal micropocket assay provides such a model of angiogenesis in the cornea of a mouse. See, A Model of Angiogenesis in the Mouse Cornea; Kenyon, B M, et al., Investigative Ophthalmology & Visual Science, July 1996, Vol. 37, No. 8.
In this assay, uniformly sized Hydron™ pellets containing bFGF and sucralfate were prepared and surgically implanted into the stroma mouse cornea adjacent to the temporal limbus. […]
Mice were dosed on a daily basis for the duration of the assay. […] At day five, the degree of angiogenic inhibition was scored by viewing the neovascular progression with a slit lamp microscope.
The mice were anesthetized and the studied eye was once again proptosed. The maximum vessel length of neovascularization, extending from the limbal vascular plexus toward the pellet was measured. In addition, the contiguous circumferential zone of neovascularization was measured as clock hours, where 30 degrees of arc equals 1 clock hour. The area of angiogenesis was calculated as [formula]
where the vessel length is measured in millimeters.
The studied mice were thereafter compared to control mice and the difference in the area of neovascularization was recorded.

The values that follow come from patent US6747027B1, “Thiol sulfonamide metalloprotease inhibitors” (Pharmacia Corporation, priority 1996, dated 2004).

In general, IC50 refers to the midpoint of a concentration-inhibition curve. Take `C[C@H](CSC(=O)C(C)(C)C)N(CCN1CCOCC1)S(=O)(=O)c1ccc(Sc2ccccc2)cc1` [Example 133]: the IC50 at recombinant human MMP-13 was 4200 nM; at recombinant human MMP-1, greater than 10 µM.
As for `C[C@H](CS)NS(=O)(=O)c1ccc(S(C)(=O)=O)cc1` [Example 147], the results for the concentration for half-maximal inhibition (IC50) on recombinant human MMP-13 and at recombinant human MMP-1 were greater than 10000 nM and less than 10 µM, respectively.
The like results for `C[C@H](CS)NS(=O)(=O)c1ccc(Cc2ncc(C(F)(F)F)cc2Cl)s1` [Example 155] were, in that order, greater than 10000 nM and greater than 10 µM.
In the same order, the values of `C[C@H](CS)N(C)S(=O)(=O)c1ccc(-c2ccccn2)s1` [Example 156] are 7.3 nM and 1.07 µM.
In the case of `CCCCOc1ccc(S(=O)(=O)N[C@@H](CS)C(=O)NC(C)C)cc1` [Example 166], the IC50 at recombinant human MMP-13 was 880 nM; on recombinant human MMP-1, greater than 10 µM.
Turning to `CCCCOc1ccc(S(=O)(=O)N[C@@H](CS)C(=O)NC)cc1` [Example 171], the IC50 was 30 nM on recombinant human MMP-13 and greater than 10 µM at recombinant human MMP-1.
In the same order, the values of `CCCCOc1ccc(S(=O)(=O)N[C@@H](CS)C(=O)NCCN2CCOCC2)cc1` [Example 172] are 250 nM and greater than 10 µM.
In the same order, the values of `CCCCOc1ccc(S(=O)(=O)N(Cc2ccncc2)[C@@H](CS)C(N)=O)cc1` [Example 175] are 0.7 nM and 0.4 µM.
In the same order, the values of `CCCCOc1ccc(S(=O)(=O)N(CCN2CCOCC2)[C@@H](CS)C(=O)NC)cc1` [Example 176] are 2.5 nM and 2.9 µM.
Take `CCCCOc1ccc(S(=O)(=O)N[C@@H](CS)C(=O)N(C)C)cc1` [Example 178]: the figures for the IC50 at recombinant human MMP-13 and on recombinant human MMP-1 were 300 nM and greater than 10 µM, respectively.
The like results for `CCCCOc1ccc(S(=O)(=O)N[C@@H](CS)C(=O)NCC(=O)O)cc1` [Example 179] were, in that order, 23.5 nM and 2 µM.
With `CCCCOc1ccc(S(=O)(=O)N[C@@H](CS)C(=O)N[C@@H](Cc2ccccc2)C(=O)NC)cc1` [Example 180], the IC50 at recombinant human MMP-13 was 700 nM; at recombinant human MMP-1, greater than 10 µM.
In the same order, the values of `CCCCOc1ccc(S(=O)(=O)N[C@@H](CS)C(=O)O)cc1` [Example 181] are 3000 nM and greater than 10 µM.
In the same order, the values of `CCCCOc1ccc(S(=O)(=O)N[C@@H](CS)C(=O)N[C@@H](Cc2ccccc2)C(N)=O)cc1` [Example 186] are 1100 nM and greater than 10 µM.
In the same order, the values of `C[C@H](CS)NS(=O)(=O)c1ccc([N+](=O)[O-])cc1` [Example 192] are greater than 10000 nM and greater than 10 µM.
For `CCC(C)(C)c1ccc(S(=O)(=O)N[C@H](C)CS)cc1` [Example 193], the IC50 at recombinant human MMP-13 is greater than 10000 nM; at recombinant human MMP-1, greater than 10 µM.
Regarding `CC(=O)Nc1ccc(S(=O)(=O)N[C@@H](CS)C(N)=O)cc1` [Example 199], the values for the IC50 at recombinant human MMP-13 and at recombinant human MMP-1 were 350 nM and greater than 10 µM, respectively.
In the same order, the values of `CCCCOc1ccc(S(=O)(=O)N[C@@H](CS)C(N)=O)cc1` [Example 201] are 3.3 nM and 7 µM.
With `CC(=O)Nc1ccc(S(=O)(=O)N(C)[C@@H](CS)C(N)=O)cc1` [Example 203], the results for the IC50 at recombinant human MMP-13 and on recombinant human MMP-1 were 170 nM and greater than 10 µM, respectively.
The like results for `CCCCOc1ccc(S(=O)(=O)N(CCC(C)C)[C@@H](CS)C(N)=O)cc1` [Example 208] were, in that order, 190 nM and greater than 10 µM.
The like results for `CCCCOc1ccc(S(=O)(=O)N[C@@H](CS)C(=O)NCc2ccccc2)cc1` [Example 209] were, in that order, 50 nM and greater than 10 µM.
The like results for `NC(=O)[C@H](CSSC[C@@H](C(N)=O)N(CCN1CCOCC1)S(=O)(=O)c1ccc(Oc2ccccc2)cc1)N(CCN1CCOCC1)S(=O)(=O)c1ccc(Oc2ccccc2)cc1` [Example 213] were, in that order, 1.5 nM and greater than 10 µM.
Turning to `CC(=O)SC[C@@H](C(N)=O)N(CCN1CCOCC1)S(=O)(=O)c1ccc(Sc2ccccc2)cc1` [Example 216], the values for the IC50 at recombinant human MMP-13 and on recombinant human MMP-1 were 200 nM and greater than 10 µM, respectively.
In the same order, the values of `C[C@H](CS)NS(=O)(=O)c1ccc(/N=N/c2ccc(N(C)C)cc2)cc1` [Example 217] are 1.5 nM and greater than 10 µM.
Take `NC(=O)[C@H](CS)N(CCN1CCOCC1)S(=O)(=O)c1ccc(NC(=O)c2ccccc2)cc1` [Example 218, N-(4-benzoylamino)phenylsulfonyl-N-(4-(morpholino-ethyl))-L-cysteine amide]: the half-inhibitory concentration (IC50) at recombinant human MMP-13 is 1.1 nM; on recombinant human MMP-1 it was greater than 10 µM. Moreover, the “inhibition of area of neovascularization versus control mice” value in assay [1] came out at 37%.
Take `NC(=O)[C@H](CS)N(CCN1CCOCC1)S(=O)(=O)c1ccc(NC(=O)c2ccc(Cl)cc2)cc1` [Example 220, N-(4-(4′-chlorobenzoyl)amino)phenylsulfonyl-N-(4-(morpholinoethyl))-L-cysteine amide]: the results for the IC50 at recombinant human MMP-13 and on recombinant human MMP-1 were 1.4 nM and 7 µM, respectively.
In the same order, the values of `NC(=O)[C@H](CS)N(CCN1CCOCC1)S(=O)(=O)c1ccc(NC(=O)c2ccc(Br)cc2)cc1` [Example 222, N-(4-(4′-bromobenzoyl)amino)phenylsulfonyl-N-(4-(morpholinoethyl))-L-cysteine amide] are 1.1 nM and 5.3 µM.
For the molecule “N-(1R-Mercaptomethyl)propyl-N-methyl-4-(n-butoxy)benzenesulfonamide [Example 23C]”, the IC50 on recombinant human MMP-13 worked out at 150 nM; at recombinant human MMP-1, 4 µM.
“N-(2-Mercapto-1R-methylethyl)-N-[2-(4-morpholino)ethyl]-4-(thiophenyl)benzenesulfonamide Hydrochloride [Example 91D]”: the IC50 on recombinant human MMP-13 is 0.7 nM; at recombinant human MMP-1 it was greater than 10 µM.
Take “N-(2-Mercapto-1S-methylethyl)-N-(phenylmethyl)-4-methoxybenzenesulfonamide [Example 13C]”: the IC50 was 2000 nM at recombinant human MMP-13 and greater than 10 µM on recombinant human MMP-1.
The like results for “N-(2-mercapto-1R-methylethyl)-4-methylbenzenesulfonamide [Example 68]” were, in that order, 1720 nM and greater than 10 µM.
Turning to “N-(2-mercapto-1R-methylethyl)-4-n-pentyl)benzenesulfonamide [Example 71]”, the IC50 is 40 nM at recombinant human MMP-13 and greater than 10 µM at recombinant human MMP-1.
The like results for “N-(2-mercapto-1R-methylethyl)-4-n-propyl)benzenesulfonamide [Example 70]” were, in that order, 440 nM and greater than 10 µM.
